According to patent US6737383B1, “Herbicidal oxadiazolidines” (priority 1999, dated 2004):

Experiments:
[1] = test system: cocklebur; assay: Test B pre/postemergence cocklebur; type: in vivo, Xanthium strumarium
Summary of the method: (§1)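 Herbicidal effect was estimated by eye on a ten-point control scale after plants spent twelve to sixteen days in a greenhouse following soil or foliar treatment. Foliar sprays targeted plants at one to four leaves; all doses were formulated in a non-phytotoxic solvent with surfactant.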

[2] = test system: wheat; assay: Test B pre/postemergence wheat; type: in vivo, Triticum aestivum
Summary of the method: as §1

[3] = test system: purple nutsedge; assay: Test B pre/postemergence purple nutsedge; type: in vivo, Cyperus rotundus
Summary of the method: as §1

[4] = test system: blackgrass; assay: Test B pre/postemergence blackgrass; type: in vivo, Alopecurus myosuroides
Summary of the method: as §1

[5] = test system: corn; assay: Test B pre/postemergence corn; type: in vivo, Zea mays
Summary of the method: as §1

[6] = test system: crabgrass; assay: Test B pre/postemergence crabgrass; type: in vivo, Digitaria sanguinalis
Summary of the method: as §1

[7] = test system: smallflower flatsedge; assay: Test B flood test smallflower flatsedge; type: in vivo, Cyperus difformis; conditions: Pre-emergence
Summary of the method: (§2)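 Each value is a visual injury score relative to controls, with 10 meaning complete control and 0 no effect. Evaluation took place twelve to sixteen days after the 2-leaf-stage plants were treated and kept in the greenhouse.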

[8] = test system: pigweed; assay: Test B pre/postemergence pigweed; type: in vivo, Amaranthus retroflexus
Summary of the method: as §1

[9] = test system: rice; assay: Test B flood test rice; type: in vivo, Oryza sativa; conditions: Pre-emergence
Summary of the method: as §2

[10] = test system: giant foxtail; assay: Test B pre/postemergence giant foxtail; type: in vivo, Setaria faberii
Summary of the method: as §1

[11] = test system: surinam grass; assay: Test B pre/postemergence surinam grass; type: in vivo, Brachiaria decumbens
Summary of the method: as §1

[12] = test system: rape; assay: Test B pre/postemergence rape; type: in vivo, Brassica napus
Summary of the method: as §1

[13] = test system: morningglory; assay: Test B pre/postemergence morningglory; type: in vivo, Ipomoea hederacea
Summary of the method: as §1

[14] = test system: bedstraw; assay: Test B pre/postemergence bedstraw; type: in vivo, Galium aparine; conditions: Postemergence, Rate 250 g/ha; scale 0 to 10, 0 is no effect, 10 is complete control
Summary of the method: as §1

[15] = test system: velvetleaf; assay: Test B pre/postemergence velvetleaf; type: in vivo, Abutilon theophrasti
Summary of the method: as §1

[16] = test system: sugar beet; assay: Test B pre/postemergence sugar beet; type: in vivo, Beta vulgaris
Summary of the method: as §1

[17] = test system: duck salad; assay: Test B flood test duck salad; type: in vivo, Heteranthera limosa; conditions: Pre-emergence
Summary of the method: as §2

[18] = test system: bamyardgrass; assay: Test B flood test barnyardgrass; type: in vivo, Echinochloa crus-galli; conditions: Pre-emergence
Summary of the method: as §2

[19] = test system: wild oat; assay: Test B pre/postemergence wild oat; type: in vivo, Avena fatua
Summary of the method: as §1

[20] = test system: soybean; assay: Test B pre/postemergence soybean; type: in vivo, Glycine max
Summary of the method: as §1

[21] = Postemergence, Rate 125 g/ha, scale 0 to 10, 0 is no effect, 10 is complete control
[22] = Postemergence, Rate 250 g/ha, scale 0 to 10, 0 is no effect, 10 is complete control
[23] = Postemergence, Rate 500 g/ha, scale of 0 to 10 where 0 is no effect and 10 is complete control
[24] = Preemergence, Rate 62 g/ha, scale 0 to 10 (0 no effect, 10 complete control)
[25] = Preemergence, Rate 125 g/ha, scale of 0 to 10 where 0 is no effect and 10 is complete control
[26] = Preemergence, Rate 250 g/ha, scale 0 to 10, 0 is no effect, 10 is complete control
[27] = Preemergence, Rate 500 g/ha, scale of 0 to 10 where 0 is no effect and 10 is complete control
[28] = Rate 62 g/ha, Postemergence, scale of 0 to 10 where 0 is no effect and 10 is complete control
[29] = Preemergence, Rate 250 g/ha, scale of 0 to 10 where 0 is no effect and 10 is complete control
[30] = Rate 62 g/ha, flood test species, visual evaluation after twelve to sixteen days
[31] = Rate 250 g/ha, flood-test species, scale 0 to 10, 0 is no effect, 10 is complete control
[32] = Rate 500 g/ha, flood test species, scale 0 to 10 (0 no effect, 10 complete control)

## CC(C)Cn1c(=O)on(C(=O)N(c2ccc(F)cc2F)C(C)C)c1=O [Compound 394]
[1]; [21]
  Plant response rating, Cocklebur: 0
[1]; [22]
  Plant response rating, Cocklebur: 0
[1]; [23]
  Cocklebur plant response rating: 4
[1]; [24]
  Plant response rating, Cocklebur: 0
[1]; [25]
  Plant response rating, Cocklebur: 0
[1]; [26]
  Cocklebur plant response rating: 0
[1]; [27]
  Cocklebur plant response rating: 0
[1]; [28]
  Cocklebur plant response rating: 0
[2]; [23]
  Wheat plant response rating: 4
[2]; [24]
  Plant response rating, Wheat: 0
[2]; [25]
  Plant response rating, Wheat: 1
[2]; [26]
  Wheat plant response rating: 6
[2]; [27]
  Wheat plant response rating: 9
[2]; [28]
  Wheat plant response rating: 0
[3]; [22]
  Plant response rating, Nutsedge: 0
[3]; [24]
  Plant response rating, Nutsedge: 0
[3]; [25]
  Plant response rating, Nutsedge: 0
[3]; [26]
  Nutsedge plant response rating: 2
[3]; [27]
  Nutsedge plant response rating: 6
[3]; [28]
  Nutsedge plant response rating: 0
[4]; [22]
  Plant response rating, Blackgrass: 9
[4]; [24]
  Plant response rating, Blackgrass: 7
[4]; [25]
  Plant response rating, Blackgrass: 8
[4]; [29]
  Blackgrass plant response rating: 10
[4]; [27]
  Blackgrass plant response rating: 10
[4]; [28]
  Blackgrass plant response rating: 2
[5]; [21]
  Plant response rating, Corn: 0
[5]; [22]
  Plant response rating, Corn: 0
[5]; [23]
  Corn plant response rating: 0
[5]; [24]
  Plant response rating, Corn: 0
[5]; [25]
  Plant response rating, Corn: 0
[5]; [26]
  Corn plant response rating: 3
[5]; [27]
  Corn plant response rating: 5
[5]; [28]
  Corn plant response rating: 0
[6]; [21]
  Plant response rating, Crabgrass: 2
[6]; [22]
  Plant response rating, Crabgrass: 8
[6]; [23]
  Crabgrass plant response rating: 9
[6]; [24]
  Plant response rating, Crabgrass: 9
[6]; [25]
  Plant response rating, Crabgrass: 10
[6]; [26]
  Crabgrass plant response rating: 10
[6]; [27]
  Crabgrass plant response rating: 10
[6]; [28]
  Crabgrass plant response rating: 2
[7]; [30]
  Plant response rating, S. Flatsedge (0 to 10 scale, 0 is no effect, 10 is complete control): 4
[7]; [31]
  S. Flatsedge plant response rating: 8
[7]; [32]
  S. Flatsedge plant response rating: 8
[8]; [22]
  Plant response rating, Redroot pigweed: 2
[8]; [23]
  Redroot pigweed plant response rating: 7
[8]; [24]
  Plant response rating, Redroot pigweed: 1
[8]; [25]
  Plant response rating, Redroot pigweed: 2
[8]; [26]
  Redroot pigweed plant response rating: Redroot pigwee 6
[8]; [27]
  Redroot pigweed plant response rating: 10
[8]; [28]
  Redroot pigweed plant response rating: 0
[9]; [30]
  Plant response rating, Rice (0 to 10 scale, 0 is no effect, 10 is complete control): 1
[9]; [31]
  Rice plant response rating: 1
[9]; [32]
  Rice plant response rating: 1
[10]; [21]
  Plant response rating, Giant foxtail: 7
[10]; [22]
  Plant response rating, Giant foxtail: 8
[10]; [23]
  Giant foxtail plant response rating: 9
[10]; [24]
  Plant response rating, Giant foxtail: 9
[10]; [25]
  Plant response rating, Giant foxtail: 10
[10]; [26]
  Giant foxtail plant response rating: 10
[10]; [27]
  Giant foxtail plant response rating: 10
[11]; [21]
  Plant response rating, B. signalgrass: 1
[11]; [22]
  Plant response rating, B. signalgrass: 2
[11]; [23]
  B. signalgrass plant response rating: 9
[11]; [24]
  Plant response rating, B. signalgrass: 2
[11]; [25]
  Plant response rating, B. signalgrass: 5
[11]; [29]
  B. signalgrass plant response rating: 8
[11]; [27]
  B. signalgrass plant response rating: 10
[11]; [28]
  B. signalgrass plant response rating: 0
[12]; [22]
  Plant response rating, Rape: 0
[12]; [24]
  Plant response rating, Rape: 0
[12]; [25]
  Plant response rating, Rape: 2
[12]; [26]
  Rape plant response rating: 7
[12]; [27]
  Rape plant response rating: 9
[12]; [28]
  Rape plant response rating: 0
[13]; [22]
  Plant response rating, Morningglory: 6
[13]; [23]
  Morningglory plant response rating: 7
[13]; [24]
  Plant response rating, Morningglory: 0
[13]; [25]
  Plant response rating, Morningglory: 0
[13]; [26]
  Morningglory plant response rating: 0
[13]; [27]
  Morningglory plant response rating: 2
[13]; [28]
  Morningglory plant response rating: 0
[14]
  Plant response rating, Bedstraw: 5
[15]; [22]
  Plant response rating, Velvetleaf: 0
[15]; [23]
  Velvetleaf plant response rating: 3
[15]; [24]
  Plant response rating, Velvetleaf: 1
[15]; [25]
  Plant response rating, Velvetleaf: 5
[15]; [26]
  Velvetleaf plant response rating: 7
[15]; [27]
  Velvetleaf plant response rating: 7
[15]; [28]
  Velvetleaf plant response rating: 0
[16]; [22]
  Plant response rating, Sugarbeets: 1
[16]; [23]
  Sugarbeets plant response rating: 5
[16]; [24]
  Plant response rating, Sugarbeets: 0
[16]; [25]
  Plant response rating, Sugarbeets: 3
[16]; [26]
  Sugarbeets plant response rating: 4
[16]; [27]
  Sugarbeets plant response rating: 7
[16]; [28]
  Sugarbeets plant response rating: 0
[17]; [30]
  Plant response rating, Ducksalad (0 to 10 scale, 0 is no effect, 10 is complete control): 0
[17]; [31]
  Ducksalad plant response rating: 3
[17]; [32]
  Ducksalad plant response rating: 3
[18]; [30]
  Plant response rating, Barnyardgrass (0 to 10 scale, 0 is no effect, 10 is complete control): 0
[18]; [31]
  Barnyardgrass plant response rating: 6
[18]; [32]
  Barnyardgrass plant response rating: 8
[19]; [23]
  Wild oats plant response rating: 6
[19]; [24]
  Plant response rating, Wild oats: 4
[19]; [25]
  Plant response rating, Wild oats: 6
[19]; [26]
  Wild oats plant response rating: 10
[19]; [27]
  Wild oats plant response rating: 10
[19]; [28]
  Wild oats plant response rating: 0
[20]; [22]
  Plant response rating, Soybean: 5
[20]; [23]
  Soybean plant response rating: 5
[20]; [24]
  Plant response rating, Soybean: 0
[20]; [26]
  Soybean plant response rating: 1
[20]; [27]
  Soybean plant response rating: 2
[20]; [28]
  Soybean plant response rating: 3
